Assay results as given in US20240132480A1, “INHIBITORS OF MYCOBACTERIUM TUBERCULOSIS LIPOAMIDE DEHYDROGENASE” (Cornell University, priority 2021, published 2024).
Read-outs that look alike come from different tables or passages of the source.

Tests used:
[1] = microsomes
Mtb Lpd = Mtb Lpd (Mycobacterium tuberculosis (strain ATCC 25618 / H37Rv), UniProt P9WHH9); assay type: biochemical
[2] = 30 min preincubation, read-out: LPD IC50 (μM) w/ 30 min preincubation

| Structure (SMILES) | Human Liver Microsome Stability [1] | IC50 (Mtb Lpd; [2]) | IC50 (Mtb Lpd; read-out: LPD IC50) |
| --- | --- | --- | --- |
| COc1ccc(NC(=O)CN(C)S(=O)(=O)c2cc(C)cc3c2NC(=O)C3)cc1Cl [Example 2, N-(3-chloro-4-methoxyphenyl)-2-((N,5-dimethyl-2-oxoindoline)-7-sulfonamido)acetamide] | 490 µL/min/mg |  |  |
| Cc1cc(S(=O)(=O)N(C)CC(=O)Nc2ccc3c(c2)OCCN3C)c2[nH]nc(C)c2c1 [Example 92] | 19 µL/min/mg |  |  |
| Cc1cc(S(=O)(=O)N(C)CC(=O)Nc2cc(=O)n3c(n2)CCCC3)c2[nH]c(C#N)cc2c1 [Example 224, 2-((2-cyano-N,5-dimethyl-1H-indole)-7-sulfonamido)-N-(4-oxo-6,7,8,9-tetrahydro-4H-pyrido[1,2-a]pyrimidin-2-yl)acetamide] | 61 µL/min/mg | 0.022 µM |  |
| COc1ccc(NC(=O)CN(C)S(=O)(=O)c2cc(C(F)F)cc3cn[nH]c23)cc1C [Example 8] | 534 µL/min/mg |  | 0.0263 µM |
| Cc1cc(S(=O)(=O)N2CC[C@H]2C(=O)Nc2ccc3ccncc3c2)c2[nH]ncc2c1 [Example 71] | 132 µL/min/mg |  | 0.0513 µM |
| Cc1cc(S(=O)(=O)N2CC[C@H]2C(=O)Nc2ccc3cnccc3c2)c2[nH]ncc2c1 [Example 85] | 93 µL/min/mg |  | 0.023 µM |
| Cc1cc(S(=O)(=O)N2CC[C@H]2C(=O)Nc2ccc3c(c2)N(C2COC2)CCO3)c2[nH]c(C#N)cc2c1 [Example 209] | 212 µL/min/mg | 0.033 µM |  |
| O=C(Nc1ccc2c(c1)OCCN2C1CCOCC1)[C@@H]1CCN1S(=O)(=O)c1cc(Cl)cc2cn[nH]c12 [Example 161] | 121 µL/min/mg |  | 0.033 µM |
| CC(C)(CO)N1CCOc2cc(NC(=O)[C@@H]3CCN3S(=O)(=O)c3cc(C(F)F)cc4cn[nH]c34)ccc21 [Example 177] | 177 µL/min/mg |  | 0.197 µM |
| CN(CC(=O)Nc1ccn(C)c(=O)c1)S(=O)(=O)c1cc(C(F)F)cc2cn[nH]c12 [Example 37] | 22 µL/min/mg |  | 0.0474 µM |
| Cc1cc(S(=O)(=O)N(C)CC(=O)Nc2ccc3c(c2)N(C2CCOCC2)CCO3)c2[nH]ncc2c1 [Example 163] | 94 µL/min/mg |  | 0.031 µM |
| Cc1cc(S(=O)(=O)N(C)CC(=O)Nc2ccn3ccnc3c2)c2[nH]ncc2c1 [Example 26] | 154 µL/min/mg |  | 0.0628 µM |
| Cn1ccc(NC(=O)[C@@H]2CCN2S(=O)(=O)c2cc(Cl)cc3c(F)n[nH]c23)cc1=O [Example 148] | -17 µL/min/mg |  | 0.04 µM |
| Cc1cc(S(=O)(=O)N2CC[C@H]2C(=O)NCC#Cc2ccccc2)c2[nH]ncc2c1 [Example 205] | 205 µL/min/mg |  | 0.154 µM |
| Cn1ccc(NC(=O)[C@@H]2CCN2S(=O)(=O)c2cc(C(F)F)cc3cn[nH]c23)cc1=O [Example 152, (S)-1-((5-(difluoromethyl)-1H-indazol-7-yl)sulfonyl)-N-(1-methyl-2-oxo-1,2-dihydropyridin-4-yl)azetidine-2-carboxamide] | -7 µL/min/mg |  | 0.058 µM |
| O=C(Nc1ccc(N2CCOCC2)c(Cl)c1)[C@H]1CCN1S(=O)(=O)c1cc(C(F)F)cc2cn[nH]c12 [Example 191, (2R)—N-(3-chloro-4-morpholino-phenyl)-1-[[5-(difluoromethyl)-1H-indazol-7-yl]sulfonyl]azetidine-2-carboxamide] | 98 µL/min/mg |  | > 10 µM |

| Structure (SMILES) | Human Liver Microsome Stability [1] | IC50 (Mtb Lpd; [2]) | IC50 (Mtb Lpd; read-out: LPD IC50) |
| --- | --- | --- | --- |
| Cc1cc(S(=O)(=O)N2CC[C@H]2C(=O)Nc2ccc(OCCN(C)C)c(Cl)c2)c2[nH]ncc2c1 [Example 168] | 1 µL/min/mg |  | 0.143 µM |
| O=C(Nc1ccc2c(c1)OCCN2C1COC1)[C@@H]1CCN1S(=O)(=O)c1cc(C(F)F)cc2c(F)n[nH]c12 [Example 184, (S)-1-((5-(difluoromethyl)-3-fluoro-1H-indazol-7-yl)sulfonyl)-N-(4-(oxetan-3-yl)-3,4-dihydro-2H-benzo[b][1,4]oxazin-7-yl)azetidine-2-carboxamide] | 36 µL/min/mg |  | 0.148 µM |
| Cc1cc(S(=O)(=O)N(C)CC(=O)Nc2ccc3c(c2)OCCN3C(C)(C)CO)c2[nH]ncc2c1 [Example 105] | 56 µL/min/mg |  | 0.027 µM |
| CN(CC(=O)Nc1ccc2c(c1)OCCN2C1COC1)S(=O)(=O)c1cc(C2(O)CC2)cc2cn[nH]c12 [Example 173] | 60 µL/min/mg |  | 0.406 µM |
| CC#CCNC(=O)CN(C)S(=O)(=O)c1cc(C)cc2cc(C#N)[nH]c12 [Example 210] | 39 µL/min/mg |  |  |
| O=C(Nc1ccc2c(c1)OCCN2C1COC1)[C@@H]1CCN1S(=O)(=O)c1cc(C(F)F)cc2cn[nH]c12 [Example 180, (S)-1-((5-(difluoromethyl)-1H-indazol-7-yl)sulfonyl)-N-(4-(oxetan-3-yl)-3,4-dihydro-2H-benzo[b][1,4]oxazin-7-yl)azetidine-2-carboxamide] | 61 µL/min/mg |  |  |
| Cc1cc(S(=O)(=O)N(C)CC(=O)Nc2ccn(C)c(=O)c2)c2[nH]ncc2c1 [Example 6] | -11 µL/min/mg |  |  |
| CC(=O)N1CCOc2cc(NC(=O)CN(C)S(=O)(=O)c3cc(C)cc4cn[nH]c34)ccc21 [Example 90] | 18 µL/min/mg |  |  |
| CCN(CC(=O)Nc1ccc2c(c1)OCCN2C)S(=O)(=O)c1cc(C)cc2cn[nH]c12 [Example 88] | 46 µL/min/mg |  |  |
| CN(CC(=O)Nc1ccn(C)c(=O)c1)S(=O)(=O)c1cc(F)cc2cn[nH]c12 [Example 93] | 6 µL/min/mg |  |  |
| Cc1cc(S(=O)(=O)N(C)CC(=O)Nc2nc3c(s2)NCCC3)c2n[nH]cc2c1 [Example 154, 2-((N,5-dimethyl-1H-indazole)-7-sulfonamido)-N-(4,5,6,7-tetrahydrothiazolo[5,4-b]250yclopro-2-yl)acetamide] |  |  | 0.05 µM |
| Cc1cc(S(=O)(=O)N(C)CC(=O)Nc2ccn(C)c(=O)c2)c2[nH]nc(C#N)c2c1 [Example 182, 2-((3-cyano-N,5-dimethyl-1H-indazole)-7-sulfonamido)-N-(1-methyl-2-oxo-1,2-dihydropyridin-4-yl)acetamide] |  |  | 0.724 µM |
| Cc1cc(S(=O)(=O)N(C)CC(=O)NC2CCOCC2)c2n[nH]cc2c1 [Example 65] |  |  | 0.118 µM |
| COc1ccc(NC(=O)CN(C)S(=O)(=O)c2cc(C)cc3c[nH]nc23)nc1 [Example 60] |  |  | 0.0415 µM |
| Cc1cc(S(=O)(=O)N(C)CC(=O)Nc2nc3cnccc3s2)c2n[nH]cc2c1 [Example 115] |  |  | 0.0276 µM |
| Cc1cc(S(=O)(=O)N(C)CC(=O)Nc2ccn(C)c(=O)c2)c2[nH]c(C)cc2c1 [Example 134] |  |  | 0.963 µM |
